Data from US8658698B2, “Insecticidal compounds” (Syngenta Crop Protection, LLC, priority 2008, dated 2014).

Tests used:
Assay type in all cases: in vivo
[1] = test system: Spodoptera littoralis (Egyptian Cotton Leafworm); assay: Spodoptera littoralis cotton leaf disc spray test; conditions: same protocol, 200 ppm, 3 DAT
Experimental: (§1) This Example illustrates the pesticidal/insecticidal properties of compounds of formula (I). The tests were performed as follows:
Spodoptera littoralis (Egyptian Cotton Leafworm)
(§2) Cotton leaf discs were placed on agar in a 24-well microtiter plate and sprayed with test solutions at an application rate of 200 ppm. After drying, the leaf discs were infested with 5 L1 larvae. The samples were checked for mortality, feeding behavior, and growth regulation 3 days after treatment (DAT). The following compounds gave at least 80% control of Spodoptera littoralis: A2, A6, A8, A9, A10, A11, A13, A15, A19, A20, A22, A25, A27, A29, A31, A33, A35, A41, A50, A55, A60, A65, A73, A88, A92, and A94. Heliothis virescens (Tobacco Budworm): Eggs (0-24 h old) were placed in 24-well microtiter plate on artificial diet and treated with test solutions at an application rate of 200 ppm (concentration in well 18 ppm) by pipetting. After an incubation period of 4 days, samples were checked for egg mortality, larval mortality and growth regulation. The following compounds gave at least 80% control of Heliothis virescens: A2, A3, A4, A5, A6, A7, A9, A10, A11, A13, A15, A19, A20, A22, A25, A26, A27, A28, A29, A31, A32, A33, A35, A38, A40, A41, A43, A46, A55, A59, A60, A65, A69, A70, A71, A73, A74, A75, A77, A79, A80, A82, A86, A88, A89, A90, A92, A94, A96, A98, and A100. Plutella xylostella (Diamond Back Moth): A 24-well microtiter plate (MTP) with artificial diet was treated with test solutions at an application rate of 200 ppm (concentration in well 18 ppm) by pipetting. After drying, the MTP's were infested with L2 larvae (7-12 per well). After an incubation period of 6 days, samples were checked for larval mortality and growth regulation. The following compounds gave at least 80% control of Plutella xylostella: A3, A4, A5, A6, A7, A8, A10, A15, A16, A18, A19, A20, A22, A25, A26, A27, A28, A29, A31, A32, A33, A35, A38, A40, A55, A69, A71, A73, A74, A75, A76, A77, A78, A80, A82, A86, A87, A88, A89, A92, A94, A96, A97, A98, and A99. Diabrotica balteata (Corn Root Worm): A 24-well microtiter plate (MTP) with artificial diet was treated with test solutions at an application rate of 200 ppm (concentration in well 18 ppm) by pipetting. After drying, the MTP's were infested with larvae (L2) (6-10 per well). After an incubation period of 5 days, samples were checked for larval mortality, and growth regulation. The following compounds gave at least 80% control of Diabrotica balteata: A5, A6, A7, A14, A15, A18, A24, A35, A53, A55, A70, A71, A75, A79, A84, A85, A88, A92, A93, A95, A96, A97, A98, A99, A100, A101, A102, A103, and A104. Myzus persicae (Green Peach Aphid): Each well of a 24-well microtiter plate is filled with 0.6 ml 30% sucrose solution, containing 12.5 ppm of the test compounds. The wells are covered with streched parafilm and infested with a mixed population of Myzus persicae. After an incubation period of 6 days, samples are checked for mortality (feeding activity). The following compounds gave at least 80% control of Myzus persicae: A4, A6, A10, A11, A15, A19, A20, A24, A27, A29, A33, A34, A36, A37, A39, A40, A41, A42, A43, A44, A45, A46, A47, A48, A49, A55, A60, and A82. Tetranychus urticae (Two-Spotted Spider Mite): Bean leaf discs on agar in 24-well microtiter plates were sprayed with test solutions at an application rate of 200 ppm. After drying, the leaf discs are infested with mite populations of mixed ages. 8 days later, discs are checked for egg mortality, larval mortality, and adult mortality. The following compounds gave at least 80% control of Tetranychus urticae: A6, A11, A15, A19, A20, A22, A26, A35, A58, and A64.

[2] = test system: Heliothis virescens (Tobacco Budworm); assay: Heliothis virescens egg test on artificial diet; conditions: same protocol, 200 ppm (18 ppm in well), 4 days
Experimental: as §1, §2

[3] = test system: Plutella xylostella (Diamond Back Moth); assay: Plutella xylostella larvae test on artificial diet; conditions: same protocol, 200 ppm (18 ppm in well), 6 days
Experimental: as §1, §2

[4] = test system: Diabrotica balteata (Corn Root Worm); assay: Diabrotica balteata larvae test on artificial diet; conditions: same protocol, 200 ppm (18 ppm in well), 5 days
Experimental: as §1, §2

[5] = test system: Myzus persicae (Green Peach Aphid); assay: Myzus persicae sucrose solution feeding test; conditions: same protocol, 12.5 ppm, 6 days
Experimental: as §1, §2

[6] = test system: Tetranychus urticae (Two-Spotted Spider Mite); assay: Tetranychus urticae bean leaf disc spray test; conditions: same protocol, 200 ppm, 8 days
Experimental: as §1, §2

Measured: effect on mortality, feeding behavior, or growth regulation

CCc1cc(C(F)(C(F)(F)F)C(F)(F)C(F)(F)F)cc(C)c1NC(=O)c1ccc(C(=O)NCCCN2CCCCC2)c(C)c1 (stereo not drawn) [A67]
no or little effect: all assays above

CCc1cc(C(F)(C(F)(F)F)C(F)(F)C(F)(F)F)cc(C)c1NC(=O)c1ccc(C(=O)NC(C)COC)c(C)c1 (stereo not drawn) [A17]
no or little effect: all assays above

CCc1cc(C(F)(C(F)(F)F)C(F)(F)C(F)(F)F)cc(C)c1NC(=O)c1ccc(C(=O)Nc2nc3c(C)cccc3s2)c(C)c1 (stereo not drawn) [A62]
no or little effect: all assays above

CCc1cc(C(F)(C(F)(F)F)C(F)(F)C(F)(F)F)cc(C)c1NC(=O)c1ccc(C(=O)Nc2nc(-c3ccc(C)cc3)cs2)c(C)c1 (stereo not drawn) [A66]
no or little effect: all assays above

CCc1cc(C(F)(C(F)(F)F)C(F)(F)C(F)(F)F)cc(C)c1NC(=O)c1ccc(C(=O)NCc2ccc(Br)cc2F)c(C)c1 (stereo not drawn) [A83]
no or little effect: all assays above

CCc1cc(C(F)(C(F)(F)F)C(F)(F)C(F)(F)F)cc(C)c1NC(=O)c1ccc(C(=O)Nc2ccccc2-c2cc3ccccc3[nH]2)c(C)c1 (stereo not drawn) [A51]
no or little effect: all assays above

CCc1cc(C(F)(C(F)(F)F)C(F)(F)C(F)(F)F)cc(C)c1NC(=O)c1ccc(C(=O)NCCCN2CCCC2)c(C)c1 (stereo not drawn) [A23]
no or little effect: all assays above

CCc1cc(C(F)(C(F)(F)F)C(F)(F)C(F)(F)F)cc(C)c1NC(=O)c1ccc(C(=O)Nc2cc(-c3ccccc3)[nH]n2)c(C)c1 (stereo not drawn) [A61]
no or little effect: all assays above

CCOC(=O)C1CC=CCC1NC(=O)c1ccc(C(=O)Nc2c(C)cc(C(F)(C(F)(F)F)C(F)(F)C(F)(F)F)cc2CC)cc1C (stereo not drawn) [A12]
no or little effect: all assays above
